Experimental findings from patent publication US10040815B2, “3-substituted 5-amino-6H-thiazolo[4,5-d]pyrimidine-2,7-dione compounds for the treatment and prophylaxis of virus infection” (Hoffmann-La Roche Inc., priority 2014, dated 2018) are described below.

Read-outs that look alike come from different tables or passages of the source.

Data set [1] concerns the target human TLR7 (Homo sapiens (Human), UniProt Q9NYK1). The data set is described as follows: HEK293-Blue-hTLR-7 cells assay (SEAP reporter, NF-κB activation). The data set is classed as cell-based. The text has this: HEK293-Blue-hTLR-7 Cells Assay: A stable HEK293-Blue-hTLR-7 cell line was purchased from InvivoGen (Cat.#: hkb-htlr7, San Diego, Calif., USA). These cells were designed for studying the stimulation of human TLR7 by monitoring the activation of NF-κB. A SEAP (secreted embryonic alkaline phosphatase) reporter gene was placed under the control of the IFN-β[…] minimal promoter fused to five NF-κB and AP-1-binding sites. The SEAP was induced by activating NF-κB and AP-1 via stimulating HEK-Blue hTLR7 cells with TLR7 ligands. Therefore the reporter expression was regulated by the NF-κB promoter upon stimulation of human TLR7 for 20 hours. The cell culture supernatant SEAP reporter activity was determined using QUANTI-Blue™ kit (Cat.#: rep-qb1, Invivogen, San Diego, Calif., USA) at a wavelength of 640 nm, a detection medium that turns purple or blue in the presence of alkaline phosphatase. […] Then 20 μL of the supernatant from each well was incubated with 180 μL Quanti-blue substrate solution at 37° C. for 2 hours and the absorbance was read at 620˜655 nm using a spectrophotometer. […] Hiroaki Hemmi et al, Nature Immunology 3, 196-200 (2002).

Data set [2] has as its system HBV (hepatitis B virus). The data set is described as follows: In vivo antiviral efficacy in AAV-HBV mouse model. The settings on record: QOD, mouse serum.
Protocol: The treatment started after the mice were infected with AAV-HBV for 29 days. They were given the treatment for 42 days, and HBV DNA and HBsAg in mouse serum were measured on the indicated time points by RT-qPCR and HBsAg CLIA respectively. The results were presented as mean±SEM. LLQ: lower limit of quantification.
This mouse model for HBV infection was generated by injecting C57BL/6 mice with a recombinant adeno-associated virus (AAV) carrying a replicable HBV (hepatitis B virus) genome (AAV-HBV).
For each study, ten 4-5 week old male C57BL/6 mice, specific pathogen free, were available from Shanghai Laboratory Animal Center of Chinese Academy of Sciences (SLAC) and housed in an animal care facility in individually ventilated cages under controlled temperature and light conditions following the Institutional Animal Care guidelines. AAV-HBV virus stock was purchased from Beijing FivePlus Molecular Medicine Institute (Beijing, China). C57BL/6 mice were injected with 200 μL of recombinant virus in saline buffer through tail vein injection. The mice were bled on day 14 post injection to monitor the levels of HBsAg, HBeAg, and HBV genomic DNA in serum, and randomly grouped based on these HBV biomarker levels.
All the mice were treated for a total of 6 weeks. Serum samples were collected twice a week to monitor the levels of HBV biomarkers. Serum HBsAg was measured using CLIA kits (Autobio Diagnostics Co., Ltd, Zhengzhou, China) according to the manufacturer's instructions. The lower limit of quantification (LLQ) for HBsAg was 0.1 ng/mL. Serum dilution of 500-fold (for HBsAg) was used to obtain values within the linear range of the standard curve. Serum HBV DNA was extracted using a MagNA Pure 96 DNA and Viral NA Small Volume Kit (Roche) following the manufacturer's instructions. The DNA samples were analyzed by real-time quantitative PCR (qPCR) using a HBV-specific primer and probe set for specific amplification and detection of a 128 bp HBV genome region from the nucleotide 2969 to 3096. The LLQ for HBV DNA was 20 copies/μL.
Data set [3] has as its system human hepatocytes. The data set is described as follows: Metabolic conversion of prodrugs to active forms in human hepatocytes (LC-MS/MS). The format is in vitro ADME. The settings on record: for metabolic conversion of prodrug to active metabolite in human hepatocytes: active metabolites Example 1-A, Example 14-A and penciclovir, respectively. The source says:
Metabolism of Prodrugs: Formula (II) or Formula (IIa) A study was undertaken to evaluate the metabolic conversion of prodrugs, formula (II) or formula (IIa), to compounds of formula (I) or formula (Ia) of the present invention. The produgs, formula (II) or formula (IIa), can be metabolized to the active compound of formula (I) or formula (Ia) and other compounds of the invention in the body if they are served as prodrugs. Hepatocytes are often used to assess the degree of metabolic conversion of prodrugs in the body of animal or human. A study was undertaken to evaluate the metabolic conversion of prodrugs, Example 2-A, Example 3-A, Example 4-A, Example 16-A and Example 17-A, to the corresponding active forms, Example 1-A and Example 14-A, in the presence of human hepatocytes. The formation of active forms, Example 1-A and Example 14-A, were monitored in the study. For comparison, the metabolic conversion of famciclovir to penciclovir was also assessed. Cryopreserved hepatocytes plating medium (Cat.#: PY-HMD-01) was purchased from RILD Research Institute for Liver Diseases (Shanghai) Co. Ltd. Cryopreserved human hepatocyte (Cat.#: X008005, Lot#:VRR) was purchased from In Vitro Technologies (Baltimore, Md.). The stock hepatocyte suspension was prepared from cryopreserved hepatocytes in plating medium at the concentration of 1.8×10^6 cells/mL. […] Reaction suspensions were prepared in 24-well cell culture plate by mixing 200 μL of hepatocytes suspension (Cyno or human) and 200 μL of working solution. The final incubation contained 0.9×10^6 cells/mL and 50 μM compound. The above mixtures were incubated at 37° C. in a humidified 5% CO2 atmosphere, with a 150 rpm shaking. After 180 min of incubation, 200 μL of the incubation mixture was transferred to 1.5 mL tube and quenched with 400 μL stop solution (ice-cold acetonitrile with 0.2 μM Tolbutamide as internal standard). The samples were centrifuged at 12000 rpm for 10 minutes and the resultant supernatants were subjected to LC-MS/MS analysis. The calibration curves were prepared in the following way. To a 200 μL of cell suspension (cell density of 1.8 million cells/mL), 198 μL of hepatocyte plating medium and 2 μL of the appropriate concentration of the compound in DMSO were added. Samples were mixed thoroughly and 200 μL of the mixture was transferred to 400 uL of the stop solution (see above). […] The compounds were quantified on an API5500 […] instrument in the ESI-Positive MRM mode.

Where [4] appears, read: HEK293-Blue-hTLR-7 cells, 20 hours incubation, SEAP reporter, read-out: HEK293- hTLR-7 EC50.
Setting [5] is: 100 mg/kg PO, after the 6-week treatment.
Where [6] appears, read: 300 mg/kg PO, at the end of the treatment (6 weeks).

human TLR7, sequence (Q9NYK1 27-1049): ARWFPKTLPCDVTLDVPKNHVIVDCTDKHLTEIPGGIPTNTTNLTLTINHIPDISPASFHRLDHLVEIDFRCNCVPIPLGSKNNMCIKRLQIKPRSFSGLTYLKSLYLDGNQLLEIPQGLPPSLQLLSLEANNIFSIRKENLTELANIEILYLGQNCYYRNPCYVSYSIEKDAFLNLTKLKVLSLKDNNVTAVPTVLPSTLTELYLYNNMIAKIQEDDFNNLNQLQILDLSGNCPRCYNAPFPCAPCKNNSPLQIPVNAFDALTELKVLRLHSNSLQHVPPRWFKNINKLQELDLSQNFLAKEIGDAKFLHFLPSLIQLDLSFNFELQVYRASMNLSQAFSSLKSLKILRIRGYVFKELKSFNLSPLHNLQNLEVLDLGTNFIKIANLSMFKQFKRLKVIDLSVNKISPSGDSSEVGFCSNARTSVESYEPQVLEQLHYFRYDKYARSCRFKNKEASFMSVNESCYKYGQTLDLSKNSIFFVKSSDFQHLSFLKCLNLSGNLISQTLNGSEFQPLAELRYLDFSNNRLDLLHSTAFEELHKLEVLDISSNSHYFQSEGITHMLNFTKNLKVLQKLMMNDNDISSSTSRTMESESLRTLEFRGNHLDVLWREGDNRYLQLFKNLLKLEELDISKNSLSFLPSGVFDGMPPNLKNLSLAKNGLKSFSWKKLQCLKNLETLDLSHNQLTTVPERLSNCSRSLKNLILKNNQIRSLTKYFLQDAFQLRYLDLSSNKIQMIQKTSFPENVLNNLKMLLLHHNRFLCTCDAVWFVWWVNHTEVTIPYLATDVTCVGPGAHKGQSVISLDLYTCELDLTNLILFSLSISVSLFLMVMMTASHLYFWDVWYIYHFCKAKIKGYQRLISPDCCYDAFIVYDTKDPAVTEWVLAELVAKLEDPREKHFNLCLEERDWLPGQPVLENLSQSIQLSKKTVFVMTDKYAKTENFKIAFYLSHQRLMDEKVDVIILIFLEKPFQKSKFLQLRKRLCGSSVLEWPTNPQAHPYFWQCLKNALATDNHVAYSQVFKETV

What is called EC50 is the concentration that produces a half-maximal response. `CC[C@H](OC(=O)C(C)C)[C@@H]1C[C@@H](O)[C@H](n2c(=O)sc3c(=O)[nH]c(N)nc32)O1` [Example 42, [(1S)-1-[(2S,4R,5R)-5-(5-Amino-2,7-dioxo-6H-thiazolo[4,5-d]pyrimidin-3-yl)-4-hydroxy-tetrahydrofuran-2-yl]propyl] 2-methylpropanoate]: the EC50 in data set [1] (setting [4]) turned out to be 51 µM.
Regarding `CCC(OC(C)=O)[C@@H]1C[C@@H](O)[C@H](n2c(=O)sc3cnc(N)nc32)O1` (single isomer, unassigned) [Example 4-A], in data set [2] (setting [5]), the “reduction in HBV DNA” value was “more than 2 log” and the “reduction in HBsAg” value worked out at 1.5 log. Besides, in data set [2] (setting [6]), the “reduction in HBV DNA” value is “more than 3 log” and the “reduction in HBsAg” value is 2.7 log. Besides, the “metabolic conversion of prodrug to active metabolite in human hepatocytes” value (“metabolic conversion of prodrug” below) in data set [3] is given as “metabolized to yield the corresponding active metabolites”.
In the case of `CCC(O)[C@@H]1C[C@@H](N=[N+]=[N-])[C@H](n2c(=O)sc3c(=O)[nH]c(N)nc32)O1` (single isomer, unassigned) [Example 23-A], in data set [1] (setting [4]), the EC50 stood at 26 µM.
As for `CCC(O)[C@@H]1C[C@@H](SC)[C@H](n2c(=O)sc3c(=O)[nH]c(N)nc32)O1` (single isomer, unassigned) [Example 22-A], the EC50 in data set [1] (setting [4]) amounted to 14 µM.
On the same count and under the same terms, for `C=CC[C@@H]1C[C@@H](C(O)CC)O[C@H]1n1c(=O)sc2c(=O)[nH]c(N)nc21` (single isomer, unassigned) [Example 26-A] the value was 12 µM; for `C#CC(O)[C@@H]1C[C@@H](O)[C@H](n2c(=O)sc3c(=O)[nH]c(N)nc32)O1` (single isomer, unassigned) [Example 18-A], 12 µM; for `Nc1nc2c(sc(=O)n2[C@@H]2O[C@H](CO)C[C@H]2N2CCCC2)c(=O)[nH]1` [Example 32, 5-Amino-3-[(2R,3R,5S)-5-(hydroxymethyl)-3-pyrrolidin-1-yl-tetrahydrofuran-2-yl]-6H-thiazolo[4,5-d]pyrimidine-2,7-dione], 67 µM.
Still for that read-out and setting: for `CC#CC(O)[C@@H]1C[C@@H](O)[C@H](n2c(=O)sc3c(=O)[nH]c(N)nc32)O1` (single isomer, unassigned) [Example 19-A] the value was 38 µM.
Consider `Nc1ncc2sc(=O)n([C@@H]3O[C@H](C(O)C4CC4)C[C@H]3O)c2n1` (stereo partly drawn) [Example 17-A, 5-Amino-3-[(2R,3R,5S)-5-[cyclopropyl(hydroxy)methyl]-3-hydroxy-tetrahydrofuran-2-yl]thiazolo[4,5-d]pyrimidin-2-one], for which, in data set [3] (after 3-hour incubation of 50 μM of prodrugs, product 1-A, 14-A or Penciclovir), the “Product Concentration in human hepatocytes (metabolized product formed from prodrug)” value came to 7.3 µM. Besides, in data set [3], the “metabolic conversion of prodrug” value was “metabolized to yield the corresponding active metabolites”.
For the molecule `CCCC(O)[C@@H]1C[C@@H](O)[C@H](n2c(=O)sc3c(=O)[nH]c(N)nc32)O1` (single isomer, unassigned) [Example 10-A], the EC50 in data set [1] (setting [4]) turned out to be 63 µM.
Regarding `CCC(O)[C@@H]1C[C@@H](O)[C@H](n2c(=O)sc3cnc(N)nc32)O1` (single isomer, unassigned) [Example 2-A], the “metabolic conversion of prodrug” value in data set [3] is given as “metabolized to yield the corresponding active metabolites”.
Turning to `CC#C[C@H](O)[C@@H]1C[C@@H](C)[C@H](n2c(=O)sc3c(=O)[nH]c(N)nc32)O1` [Example 29, 5-Amino-3-[(2R,3R,5S)-5-[(1S)-1-hydroxybut-2-ynyl]-3-methyl-tetrahydrofuran-2-yl]-6H-thiazolo[4,5-d]pyrimidine-2,7-dione], the EC50 in data set [1] (setting [4]) was 29 µM.
`CC[C@H](O)[C@@H]1C[C@@H](C)[C@H](n2c(=O)sc3c(=O)[nH]c(N)nc32)O1` [Example 28, 5-amino-3-[(2R,3R,5S)-5-[(1S)-1-hydroxypropyl]-3-methyl-tetrahydrofuran-2-yl]-6H-thiazolo[4,5-d]pyrimidine-2,7-dione] yielded an EC50 in data set [1] of 10 µM.
For the molecule `Nc1nc2c(sc(=O)n2[C@@H]2O[C@H](C(O)C3CC3)C[C@H]2O)c(=O)[nH]1` (single isomer, unassigned) [Example 14-A], the EC50 in data set [1] (setting [4]) amounted to 48 µM.
In the case of `CC(=O)OC(C1CC1)[C@@H]1C[C@@H](O)[C@H](n2c(=O)sc3cnc(N)nc32)O1` (single isomer, unassigned) [Example 16-A], the “metabolic conversion of prodrug” value in data set [3] is “metabolized to yield the corresponding active metabolites”.
In the case of `CS[C@@H]1C[C@@H](CO)O[C@H]1n1c(=O)sc2c(=O)[nH]c(N)nc21` [Example 39, 5-Amino-3-[(2R,3R,5S)-5-(hydroxymethyl)-3-methylsulfanyl-tetrahydrofuran-2-yl]-6H-thiazolo[4,5-d]pyrimidine-2,7-dione], in data set [1] (setting [4]), the concentration for a half-maximal effect (EC50) amounted to 62 µM.
Regarding `CC(=O)OCC(CCn1cnc2cnc(N)nc21)COC(C)=O` [Famciclovir, famciclovir, reference compound], the “metabolic conversion of prodrug” value in data set [3] was “metabolized to yield the corresponding active metabolites”.
With `CCC[C@@H]1C[C@@H]([C@@H](O)CC)O[C@H]1n1c(=O)sc2c(=O)[nH]c(N)nc21` [Example 27-A, 5-amino-3-[(2R,3R,5S)-5-[(1S)-1-hydroxypropyl]-3-propyl-tetrahydrofuran-2-yl]-6H-thiazolo[4,5-d]pyrimidine-2,7-dione], in data set [1] (setting [4]), the EC50 amounted to 15 µM.
Turning to `C[C@H](O)[C@@H]1C[C@@H](C)[C@H](n2c(=O)sc3c(=O)[nH]c(N)nc32)O1` [Example 31, 5-Amino-3-[(2R,3R,5S)-5-[(1S)-1-hydroxyethyl]-3-methyl-tetrahydrofuran-2-yl]-6H-thiazolo[4,5-d]pyrimidine-2,7-dione], the EC50 in data set [1] (setting [4]) was found to be 70 µM.
For the molecule `C=CC(O)[C@@H]1C[C@@H](O)[C@H](n2c(=O)sc3c(=O)[nH]c(N)nc32)O1` (single isomer, unassigned) [Example 24-A], in data set [1] (setting [4]), the EC50 was 70 µM.
`CCC(O)[C@@H]1C[C@@H](OC(C)=O)[C@H](n2c(=O)sc3cnc(N)nc32)O1` (single isomer, unassigned) [Example 3-A]: in data set [3], the “metabolic conversion of prodrug” value is listed as “metabolized to yield the corresponding active metabolites”.
As for `C=CCC(O)[C@@H]1C[C@@H](O)[C@H](n2c(=O)sc3c(=O)[nH]c(N)nc32)O1` (single isomer, unassigned) [Example 8-A], in data set [1] (setting [4]), the concentration giving a half-maximal response (EC50) is 87 µM.
As to `C[C@@H]1C[C@@H]([C@@H](O)C2CC2)O[C@H]1n1c(=O)sc2c(=O)[nH]c(N)nc21` [Example 30, 5-Amino-3-[(2R,3R,5S)-5-[(S)-cyclopropyl(hydroxy)methyl]-3-methyl-tetrahydrofuran-2-yl]-6H-thiazolo[4,5-d]pyrimidine-2,7-dione], in data set [1] (setting [4]), the EC50 was found to be 15 µM.
Take `C=CC[C@@H]1C[C@@H](C(O)CC)O[C@H]1n1c(=O)sc2c(=O)[nH]c(N)nc21` (stereo partly drawn) [Example 26, 3-[(2R,3R,5S)-3-allyl-5-(1-hydroxypropyl)tetrahydrofuran-2-yl]-5-amino-6H-thiazolo[4,5-d]pyrimidine-2,7-dione]: the concentration giving a half-maximal response (EC50) in data set [1] (setting [4]) was 29 µM.
For `Nc1nc2c(sc(=O)n2[C@@H]2O[C@H](CO)C[C@H]2O)c(=O)[nH]1` [ANA-122, reference compound], in data set [1] (setting [4]), the EC50 was 446 µM.
